Results on ten molecules are retold here after patent US20080113014A1, “Method for Screening for Compounds Safe for Gastric Mucosa” (LTT BIO-PHARMA CO., LTD., priority 2004, published 2008).

In one data set the test system is gastric mucosal cells. As to the kind of experiment: Cytotoxicity of NSAIDs to gastric mucosal cells. The data set is classed as cell-based. The following applies: order among the five NSAIDs of the same figure (FIG. 3 or FIG. 4). The source says: Specifically, the cytotoxicity of 10 clinically used NSAIDs as measured by the decrease in cell viability (i.e., cytotoxicity due to necrosis/apoptosis as measured by the decrease in cell viability) was compared to their membrane toxicity determined by the liposome model.

Data set [1] in a line: Calcein leakage from calcein-encapsulating liposome in the presence of NSAIDs (membrane toxicity). The note with it: 30° C., 10 min, fluorescence at 520 nm; order among the five NSAIDs of the same figure.
Data set [2] is described as follows: Calcein leakage from liposome in the presence of an NSAID and the gastric mucosa-protecting agent teprenone. The following applies: for calcein leakage from liposome in the presence of NSAID and teprenone: teprenone 0, 10^-7 to 10^-4 M, 30° C., 10 min. The procedure:
Teprenone (product name, Selbex (registered trademark)) was used as the gastric mucosa-protecting agent and was used at concentrations of 0 M (Control), 10^−7 M, 10^−6 M, 10^−5 M and 10^−4 M.
Each NSAID and teprenone at respective concentrations were added to the liposome solution obtained in Example 1. Each solution was incubated at 30° C. for 10 min. Subsequently, the fluorescence at 520 nm was measured for each solution to determine the calcein leakage from liposome (i.e., membrane toxicity).

`Cc1ccc(-c2cc(C(F)(F)F)nn2-c2ccc(S(N)(=O)=O)cc2)cc1` [celecoxib]: the “cytotoxicity to gastric mucosal cells (rank order)” value (“cytotoxicity” for short) in the data set on gastric mucosal cells is given as “celecoxib>mefenamic acid>flufenamic acid>nimesulide>etodolac”. The same measure, in the same setting: next, `O=C(O)Cc1ccccc1Nc1c(Cl)cccc1Cl` [diclofenac]: “indomethacin>diclofenac>flurbiprofen>ibuprofen>ketoprofen”. On the same count and under the same terms, for `CCc1cccc2c3c([nH]c12)C(CC)(CC(=O)O)OCC3` (stereo not drawn) [etodolac] the value was “celecoxib>mefenamic acid>flufenamic acid>nimesulide>etodolac”. For `O=C(O)c1ccccc1Nc1cccc(C(F)(F)F)c1` [flufenamic acid], in data set [1], the “calcein leakage from the liposome (membrane toxicity), rank order” value is “decreased in the same order”. Also, the “cytotoxicity” value with gastric mucosal cells is “celecoxib>mefenamic acid>flufenamic acid>nimesulide>etodolac”. Regarding `CC(C(=O)O)c1ccc(-c2ccccc2)c(F)c1` (stereo not drawn) [flurbiprofen], in the data set with gastric mucosal cells, the “cytotoxicity” value is “indomethacin>diclofenac>flurbiprofen>ibuprofen>ketoprofen”. Same read-out and setting: next, `COc1ccc2c(c1)c(CC(=O)O)c(C)n2C(=O)c1ccc(Cl)cc1` [indomethacin]: “indomethacin>diclofenac>flurbiprofen>ibuprofen>ketoprofen”.

Take `CC(C(=O)O)c1cccc(C(=O)c2ccccc2)c1` (stereo not drawn) [ketoprofen]: in data set [1], the “calcein leakage from the liposome (membrane toxicity), rank order” value was “decreased in the same order”. On to `Cc1cccc(Nc2ccccc2C(=O)O)c1C` [mefenamic acid], for which the “cytotoxicity” value in the data set on gastric mucosal cells is “celecoxib>mefenamic acid>flufenamic acid>nimesulide>etodolac”. Still for that read-out and setting: next, `CS(=O)(=O)Nc1ccc([N+](=O)[O-])cc1Oc1ccccc1` [nimesulide]: “celecoxib>mefenamic acid>flufenamic acid>nimesulide>etodolac”. As to teprenone, the “calcein leakage from liposome in the presence of NSAID and teprenone (repeat experiment)” value is on record as “reduced the calcein leakage from the liposome” in data set [2] (0.05 mM and 0.1 mM celecoxib); “reduced the calcein leakage from the liposome” in data set [2] (2 mM and 10 mM diclofenac); “reduced the calcein leakage from the liposome” in data set [2] (4 mM and 8 mM indomethacin); “reduced the calcein leakage from the liposome” in data set [2] (40 mM and 60 mM ibuprofen). Besides, the “calcein leakage from liposome in the presence of NSAID and teprenone” value in data set [2] (0.08 mM celecoxib), in data set [2] (4 mM diclofenac), in data set [2] (6 mM indomethacin) and in data set [2] (20 mM ibuprofen) was “the calcein leakage decreases as the amount of teprenone is increased” in each case.
